From patent US10954269B2, “Anti-inflammatory tripeptides” (Dr. August Wolff Gmbh & Co. KG Arzneimittel, priority 2013, dated 2021)

Assays:
[1] = tested on: primary human T-cells; test: Cytokine secretion on protein level in activated primary human T-cells (13-plex FACS / Luminex, supernatant); assay type: cell-based; conditions: human T cells; PMA/Ionomycin; Luminex; all tested concentrations
Procedure, shortened: (§1)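 Primary T-cells from peripheral blood of healthy volunteers, or HaCaT cells, were activated with PMA/Ionomycin or IFN-γ for 48 h and treated with tripeptides. Supernatants were collected 48 h and 72 h after stimulation and cytokines (IL-1, IL-2, IL-6, IL-12p70, IL-17, IFN-γ, TNF-α) were measured by 13-plex FACS.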

[2] = tested on: human keratinocyte cell line (HaCaT); test: Cytokine secretion on protein level in activated human keratinocyte cell line HaCaT (13-plex FACS / Luminex, supernatant); assay type: cell-based; conditions: HaCaT; PMA/Ionomycin; Luminex; all tested concentrations
Procedure, shortened: as §1

[3] = tested on: primary murine T-cells; test: Cytokine secretion on protein level in activated primary murine T-cells (13-plex FACS / Luminex, supernatant); assay type: cell-based, C57BL/6 mice; conditions: murine T cells; PMA/Ionomycin; Luminex; all tested concentrations
Procedure, shortened: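 T-cells from secondary lymphatic organs of naïve C57BL/6 mice, stimulated with PMA/Ionomycin or IFN-γ; supernatant cytokines measured by 13-plex FACS 48 h and 72 h after stimulation. In another run, PMA/Ionomycin-stimulated cells received compounds at 10^−7, 10^−9 and 10^−11 M, with IFN-γ, IL-17 and IL-10 measured by Luminex.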

[4] = tested on: primary human T cells; test: Gene expression of pro-inflammatory cytokines (RT-qPCR) in primary human T cells; assay type: cell-based; conditions: PMA/Ionomycin, 10^−7 M, 10^−9 M and 10^−11 M
Source text: (§2) Cells were activated with PMA/Ionomycin and treated with PBS, α-MSH, K(D)PT and Examples 3, 8 and 9, respectively, at a concentration of 10^−9 M. Values are normalized to β-actin and are shown relative to the gene expression in PBS-stimulated cells.
(§3) Primary T-cells were isolated from peripheral blood from healthy volunteers and from secondary lymphatic organs from naïve C57BL/6 mice, respectively. The cells were stimulated with phorbol-12-myristate-13-acetate (PMA)/Ionomycin and interferon-gamma (IFN-γ), respectively, for 48 h to activate the cells. The activated cells release pro-inflammatory cytokines. In parallel a human (HaCaT) keratinocyte cell line was activated with PMA/Ionomycin and IFN-γ, respectively, too. […] At the same time release of anti-inflammatory IL-10 was inhibited. Two days after addition of PMA/Ionomycin and IFN-γ, respectively, the induction of IL-1 secretion was determined in the supernatant for proving that the cells are activated. […] The anti-inflammatory properties of the tripeptides were determined 48 h and 72 h following stimulation. A 13-plex-system based FACS analysis was used for showing the reduced secretion of pro-inflammatory cytokines in the supernatant. Data for IL-1, IL-2, IL-6, IL-12p70 IL-17, IFN-γ and TNF-α are considered to be most relevant. Thus, analysis of the anti-inflammatory properties of the tripeptides is preferably based on the results obtained for these analytes. […] Using this method the gene expression of pro-inflammatory markers like IL-6, IL-17, IFN-γ and TNF-α was determined.
(§4) In a third experiment murine and human T cells and HaCaT cells were stimulated with PMA/Ionomycin and treated with Examples 14, 15, 16 and 17 at 10^−7 M, 10^−9 M and 10^−11 M. Cytokine concentrations (IFN-γ, IL-17 and IL-10 for T cells and IFN-γ for HaCat) were assessed in the supernatants using the Luminex technology. Expression of genes coding for Il-1β, IL-6 and TNF-α was determined. […] Moreover, concentrations of pro-inflammatory cytokines IFN-γ and IL-17 was reduced in the supernatants whereas the concentration of anti-inflammatory cytokine IL-10 was increased.

[5] = tested on: human keratinocytes (HaCaT); test: Gene expression of pro-inflammatory cytokines (RT-qPCR) in human keratinocytes (HaCaT); assay type: cell-based; conditions: HaCaT cells; PMA/Ionomycin; 10^−7 M, 10^−9 M and 10^−11 M
Source text: as §2, §3, §4

[6] = tested on: primary murine T cells; test: Gene expression of pro-inflammatory cytokines (RT-qPCR) in primary murine T cells; assay type: cell-based, C57BL/6 mice; conditions: PMA/Ionomycin, 10^−7 M, 10^−9 M and 10^−11 M
Source text: as §2, §3, §4

[7] = tested on: Balb/c mice; test: Imiquimod-induced psoriasis in mice; assay type: in vivo; conditions: i.v.
Method: Psoriasis in Balb/c mice is induced by daily application of topical Imiquimod for 8 days. Animal are treated with the test items (topical or systemically). On day 9 the skin phenotype is characterized using a clinical score system (0=normal mouse skin; 1=mild reddening; 2=erythema; 3=erythema, swelling; 4=erythema, swelling, scaling; 5=erythema, swelling, scaling, (bloody) lesions). Skin is analyzed histologically. Lymph nodes are analyzed by flow cytometry and RT-qPCR. mRNA expression in lesional skin is analyzed by RT-qPCR. Cytokine concentrations in the serum are assessed using the Luminex technology.

## N^α,N^α-dimethyl-(L)-Phe-(t)-Pro-Aib-OH [Example 17]
[1]
  concentration of anti-inflammatory cytokine IL-10 in the supernatants: increased
  concentrations of pro-inflammatory cytokines IFN-γ and IL-17 in the supernatants: reduced
[2]
  concentration of pro-inflammatory cytokine IFN-γ in the supernatants: reduced
[3]
  concentration of anti-inflammatory cytokine IL-10 in the supernatants: increased
  concentrations of pro-inflammatory cytokines IFN-γ and IL-17 in the supernatants: reduced
[4]
  expression of pro-inflammatory cytokines IL-1β, IL-6 and TNF-α on mRNA level: reduced expression
[5]
  expression of pro-inflammatory cytokines IL-1β, IL-6 and TNF-α on mRNA level: reduced expression
[6]
  expression of pro-inflammatory cytokines IL-1β, IL-6 and TNF-α on mRNA level: reduced expression
[7]
  concentrations of TNF-α and IL-17 in the serum: reduced
  epidermal thickness: reduced
[7]; compared to vehicle control
  mRNA expression of IFN-γ and IL-36 in lesional skin: reduced
[7]; day 9
  clinical score: reduced
